# Article PMC7665585, “Antidepressive effect of an inward rectifier K^+ channel blocker peptide, tertiapin-RQ” (PLoS ONE, 2020)
# Bridge positions count the residues as written; N and C are the ends. Peptide text beside a SMILES is read from it.
# Key:
# [1] = Chemical stability in mouse serum by HPLC; assay type: in vitro ADME; conditions: 33.0 μM peptide mixed with equal volume of mouse serum, 37°C, 30 min; cation-exchange HPLC (HiTrap-SP), A230 nm
# Method: For the examination of the chemical stability, the peptide was analyzed with high-performance liquid chromatography (HPLC, JASCO, Tokyo, Japan) using a cation-exchange column (HiTrap-SP, Cytiva). TPN-RQ 33.0 μM, which was mixed with an equal volume of PBS or mouse serum, was analyzed with HPLC immediately after mixing or after incubation at 37°C for 30 min. Peptides were eluted with a gradient of NaCl from 200 to 2,000 mM in 10 mM Tris-HCl (pH 7.4), monitoring A230 nm with a UV detector (JASCO).
# [2] = system: Male ICR mice; experiment: Balance beam test; assay type: in vivo, mouse; conditions: i.c.v.; 10 mm and 6 mm beams, central 60 cm
# Method: (§1) We performed mouse behavioral experiments in accordance with our previous study. Male ICR mice (n = 199 in total) aged 5 weeks old were purchased from Shimizu Laboratory Supplies (Kyoto, Japan) and maintained in an animal facility for 7–12 days. They had free access to food and water and were kept in a 12-h light/dark cycle (08:00–20:00). Experiments were carried out between 11:00 and 17:00 in a quiet and air-conditioned experimental room, to which mice were habituated for 30–60 min before each experiment. Animal experiments were performed in accordance with the guidelines of the Physiological Society of Japan and were approved by the Committee for Animal Experiments of Kurashiki University of Science and the Arts. Peptides were dissolved in phosphate-buffered saline (PBS). Peptides were injected intracerebroventricularly (i.c.v.) 30 min before behavioral tests (typically 5 μL/mouse), according to a previous study. The mouse was placed into an anesthetizing jar, to which isoflurane (0.2 mL) was added immediately before. […]
# Motor coordination was assessed by measuring the ability to traverse a narrow beam to reach a familiar cage. […] The time required to cross the central 60 cm of the beam was measured.
# [3] = system: Male ICR mice; experiment: Tail suspension test (TST); assay type: in vivo, mouse; conditions: 750 pmole i.c.v., 30 min before test, 5 min recording
# Method: We performed mouse behavioral experiments in accordance with our previous study. Male ICR mice (n = 199 in total) aged 5 weeks old were purchased from Shimizu Laboratory Supplies (Kyoto, Japan) and maintained in an animal facility for 7–12 days. They had free access to food and water and were kept in a 12-h light/dark cycle (08:00–20:00). Experiments were carried out between 11:00 and 17:00 in a quiet and air-conditioned experimental room, to which mice were habituated for 30–60 min before each experiment. Animal experiments were performed in accordance with the guidelines of the Physiological Society of Japan and were approved by the Committee for Animal Experiments of Kurashiki University of Science and the Arts. Peptides were dissolved in phosphate-buffered saline (PBS). Peptides were injected intracerebroventricularly (i.c.v.) 30 min before behavioral tests (typically 5 μL/mouse), according to a previous study. The mouse was placed into an anesthetizing jar, to which isoflurane (0.2 mL) was added immediately before. After confirming that the mouse was deeply anesthetized we injected the peptide into the right cerebral ventricle over 30 seconds and the injection needle was kept for 1 min after the injection (i.c.v. coordinates: 0 mm caudal to bregma, 1.0 mm lateral to the midline, and 3.5 mm below the skull). The mouse was placed in a cage set on a heating pad (approximately 33°C) for a few minutes until it spontaneously started to move, and then it was put back into its home cage. Each animal was used only once, except for the wheel running test, which was carried out immediately after the elevated plus-maze.
# The tail suspension test (TST) was performed in accordance with the method reported previously. The mouse was hung on a hook using adhesive tape placed 2 cm from the extremity of its tail 50 cm above a table. The amount of time spent immobile was recorded for 5 min.
# [4] = system: Male ICR mice; experiment: Forced swim test (FST); assay type: in vivo, mouse; conditions: i.c.v., 30 min before test, last 4 min of 6 min
# Method: as §1
# The forced swim test (FST) was performed in accordance with the method reported previously. […] The mouse was allowed to swim for 6 min and its activity was measured. […]
# [5] = system: Male ICR mice; experiment: Elevated plus-maze (EPM); assay type: in vivo, mouse; conditions: i.c.v., 5 min
# Method: as §1
# The elevated plus maze (EPM) apparatus consisted of four arms set in a cross pattern from a neutral central square (6 × 6 cm). […] The total number of entries to open arms and time spent in the open arms was measured. […]
Structure (SMILES),chemical stability in mouse serum (HPLC peak height and retention time) [1],time required to cross the beam [2],immobile time in TST [3],immobile time in FST [4],number of entries to the open arms in EPM [5],time spent in the open arms in EPM [5]
"CC[C@H](C)[C@@H]1NC(=O)[C@H](CCCNC(=N)N)NC(=O)[C@H](CCCNC(=N)N)NC(=O)[C@H](CC(N)=O)NC(=O)[C@@H]2CSSC[C@@H](C(=O)NCC(=O)N[C@@H](CCCCN)C(=O)N[C@@H](CCCCN)C(N)=O)NC(=O)[C@H](CCCCN)NC(=O)[C@H](CCCCN)NC(=O)[C@H](Cc3c[nH]c4ccccc34)NC(=O)[C@H](CSSC[C@H](NC(=O)[C@H](CC(C)C)NC(=O)[C@H](C)N)C(=O)N[C@@H](CC(N)=O)C(=O)N2)NC(=O)[C@H](CCC(N)=O)NC(=O)[C@H](Cc2c[nH]cn2)NC(=O)[C@@H]2CCCN2C(=O)[C@H]([C@@H](C)CC)NC1=O [Peptide 2, TPN-RQ] (H-ALCNCNRRIIPHQCWKKCGKK-NH2; disulfide 3-14, 5-18)",No changes in the peak height or retention time,longer,–,–,–,–
"CC[C@H](C)[C@@H]1NC(=O)[C@H](CCCNC(=N)N)NC(=O)[C@H](CC(N)=O)NC(=O)[C@@H]2CSSC[C@@H](C(=O)NCC(=O)N[C@@H](CCCCN)C(=O)N[C@@H](CCCCN)C(N)=O)NC(=O)[C@H](CCCCN)NC(=O)[C@H](CCCCN)NC(=O)[C@H](Cc3c[nH]c4ccccc34)NC(=O)[C@H](CSSC[C@H](NC(=O)[C@H](CC(C)C)NC(=O)[C@H](C)N)C(=O)N[C@@H](CC(N)=O)C(=O)N2)NC(=O)[C@H](CCC(N)=O)NC(=O)[C@H](CC(C)C)NC(=O)[C@@H]2CCCN2C(=O)[C@H]([C@@H](C)CC)NC(=O)[C@H]([C@@H](C)CC)NC1=O [Peptide 3, TPN-LQ] (H-ALCNCNRIIIPLQCWKKCGKK-NH2; disulfide 3-14, 5-18; N-terminus and C-terminus assumed)",–,–,decreased the immobile time,decreased the immobile time,decreased,decreased
